Three compounds from patent US20240425523A1, “Compounds for the Degradation of EGFR Kinase” (Beigene Switzerland GMBH, priority 2023, published 2024) can be followed below.

Common to all, as to type: cell-based
The target of assay [1] is T1, EGFR-L858R/C797S (H1975-clone #8 cells) (Homo sapiens, UniProt P00533, C797S/L858R).
T1 construct: expressed in transfected cells; host or cells: H1975 (endogenous EGFR knocked out, clone #8)
In words: Cell degradation of EGFR, HTRF assay, H1975-clone#8 (L858R/C797S) cells. Conditions: 16 h treatment; for DC50: EGFR degradation; for Dmax: maximum percentage of degradation.

Assay [2] addresses T2, EGFR L858R (BaF3-L858R cells) (Homo sapiens, UniProt P00533, L858R).
T2 construct: host or cells: BaF3
Description: Cell degradation of EGFR, HTRF assay, BaF3-L858R cells. Conditions: 16 h treatment; for DC50: EGFR degradation; for Dmax: maximum percentage of degradation. The method in brief:
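BaF3-L858R cells treated 16 h at 37° C, 5% CO2 with compound (top 10 uM final, 5-fold, 8 doses, 0.1% DMSO). DC50 from four-parameter fit; Dmax is maximum percent degradation.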

Assay [3] concerns the target T3, p-EGFR L858R (BaF3-L858R cells) (Homo sapiens, UniProt P00533, L858R).
T3 construct: host or cells: BaF3
In words: Cell p-EGFR inhibition assay, HTRF, BaF3-L858R cells. As to conditions: 16 h treatment; for Imax (%): maximum percentage of pEGFR inhibition; for IC50: pEGFR inhibition. The method in brief: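 BaF3-L858R cells treated 16 h at 37 °C, 5% CO2 with compound from 10 uM top, 5-fold dilutions, 8 doses, in 0.1% DMSO medium. Lysates read overnight by HTRF p-EGFR antibodies; IC50 fitted to four-parameter curve against DMSO high control.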

Assay [4] addresses p-EGFR Del19/C797S (H1975-clone #23 cells) (Homo sapiens, UniProt P00533). In words: Cell p-EGFR inhibition assay, HTRF, H1975-clone#23 (DEL19/C797S) cells. Conditions: 16 h treatment; for Imax (%): maximum percentage of pEGFR inhibition; for IC50: pEGFR inhibition. The method in brief:
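Phospho-EGFR read by overnight HTRF on lysates, normalized to DMSO-treated high control; IC50, Hill slope and Imax fitted. Compounds were applied for 16 h (10 uM top, 5-fold steps, 8 doses) to an H1975 single clone carrying only exogenous Del19/C797S EGFR after sgRNA knockout of endogenous copies.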

Turning to `Cc1cc2cc(n1)-c1c(C)nn(C)c1OC[C@H]1CC[C@H](C1)CN1/C(=N/C2=O)Nc2ccc(N3CCN(C4CCN(c5cc(F)c([C@H]6CCC(=O)NC6=O)c(F)c5)CC4)C(=O)C3)cc21` [Example 164, (R)-3-(2,6-difluoro-4-(4-(2-oxo-4-((7^1R,7^3S,E)-1^1,1^3,2^6-trimethyl-3-oxo-5^2,5^3-dihydro-1^1H,5^1H-9-oxa-4-aza-5(2,1)-benzo[d]imidazola-2(2,4)-pyridina-1(4,5)-pyrazola-7(1,3)-cyclopentanacyclononaphane-5^6-yl)piperazin-1-yl)piperidin-1-yl)phenyl)piperidine-2,6-dione], the DC50 was 1.19 nM in assay [1] and 2.79 nM in assay [2]. The Dmax in assay [1] worked out at 88.7%; in assay [2], 92.7%. Moreover, the entries for the “Imax (%)” value in assay [3] and in assay [4] were 94.91% and 96.95%, respectively. For the same compound, the IC50 in assay [3] was found to be 1.85 nM; in assay [4], 0.254 nM.

For the compound `COC[C@@H]1CN(c2cc3c(cc2OC)N/C2=N\C(=O)c4cc(C)nc(c4)-c4c(C)nn(C)c4OC[C@H]4CC[C@H](C4)CN23)CCN1C1CCN(c2cc(F)c([C@H]3CCC(=O)NC3=O)c(F)c2)CC1` [Example 151, (R)-3-(2,6-difluoro-4-(4-((S)-4-((7^1R,7^3S,E)-5^5-methoxy-1^1,1^3,2^6-trimethyl-3-oxo-5^2,5^3-dihydro-1^1H,5^1H-9-oxa-4-aza-5(2,1)-benzo[d]imidazola-2(2,4)-pyridina-1(4,5)-pyrazola-7(1,3)-cyclopentanacyclononaphane-5^6-yl)-2-(methoxymethyl)piperazin-1-yl)piperidin-1-yl)phenyl)piperidine-2,6-dione], in assay [1], the DC50 was 2.62 nM and the Dmax is 88.5%. Moreover, in assay [2], the DC50 came out at 1.68 nM and the Dmax is 90.6%. In addition, in assay [3], the “Imax (%)” value stood at 95.95% and the IC50 was found to be 5.03 nM. Also, in assay [4], the “Imax (%)” value came out at 99.54% and inhibition was half-maximal at 1.02 nM (IC50).

Turning to `COCCn1nc(C)c2c1OC[C@H]1CC[C@H](C1)CN1/C(=N/C(=O)c3cc(C)nc-2c3)Nc2ccc(N3CCN(C4CCN(c5cc(F)c([C@H]6CCC(=O)NC6=O)c(F)c5)CC4)CC3)cc21` [Example 161, (R)-3-(2,6-difluoro-4-(4-(4-((7^1R,7^3S,E)-1^1-(2-methoxyethyl)-1^3,2^6-dimethyl-3-oxo-5^2,5^3-dihydro-1^1H,5^1H-9-oxa-4-aza-5(2,1)-benzo[d]imidazola-2(2,4)-pyridina-1(4,5)-pyrazola-7(1,3)-cyclopentanacyclononaphane-5^6-yl)piperazin-1-yl)piperidin-1-yl)phenyl)piperidine-2,6-dione], the DC50 in assay [1] was found to be 2.96 nM; in assay [2], 7.2 nM. Also, the Dmax in assay [1] came out at 89.3%; in assay [2] it was 91.4%. Further, the figures for the “Imax (%)” value in assay [3] and in assay [4] were 93.23% and 95.04%, respectively. The IC50 in assay [3] came to 4.51 nM; in assay [4], 0.49 nM.
